{"source": "patent US10351559B2", "about": "“Maleate salts of a B-RAF kinase inhibitor, crystalline forms, methods of preparation, and uses therefore” (BeiGene, Ltd., priority 2015, dated 2019)", "key": {"[1]": {"tested_on": "ERK phosphorylation in A375 cells", "assay": "cellular phospho-ERK TR-FRET assay", "type": "cell-based", "details": "Homo sapiens, A-375; B-RAF V600E mutant melanoma A375 cells, 1 h treatment", "protocol": "(§1) A375, Sk-Mel-28, HT29, Colo205, A431, and HCC827 cell lines were purchased from American Type Culture Collection. All the cell lines used in the cellular assays were cultured in the designated medium supplemented with 10% fetal bovine serum (FBS, Thermo Scientific), 100 units/mL penicillin (Gibco), 0.1 mg/mL streptomycin (Gibco) and in a humidified 37° C. environment with 5% CO2. Cell lines were reinstated from frozen stocks laid down within three passages from the original cells purchased and passaged no more than 30 times.\n(§2) Cellular phospho-ERK and phospho-EGFR were measured using a TR-FRET-based method. Cells were seeded at 3×10^4 per well of a 96-well plate and left to attach for 16 hours. Growth medium was then replaced with 100 μL of medium containing no serum. Cells were then treated with a 10-point titration of compound. After 1 h of compound treatment, 50 μL of lysis buffer (Cisbio) were added to each well. Plates were then incubated at room temperature with shaking for 30 min. A total of 16 μL of cell lysate from each well of a 96-well plate was transferred to a 384-well small volume white plate. Lysate from each well was incubated with 2 μL of Eu3+- or Tb3+-cryptate (donor) labeled anti-ERK or anti-EGFR antibody (Cisbio) and 2 μL of D2 (acceptor) labeled anti-phospho-ERK or anti-phospho-EGFR antibody (Cisbio) for 2 h at room temperature. FRET signals were measured using a PHERAstar FS reader (BMG Labtech). IC50 values for ERK or EGFR phosphorylation was determined using GraphPad Prism software."}, "[2]": {"tested_on": "ERK phosphorylation in Colo205 cells", "assay": "cellular phospho-ERK TR-FRET assay", "type": "cell-based", "details": "Homo sapiens, COLO 205; B-RAF V600E mutant Colo205 colorectal cancer cells, 1 h treatment", "protocol": "as §1, §2"}, "[3]": {"tested_on": "ERK phosphorylation in HT29 cells", "assay": "cellular phospho-ERK TR-FRET assay", "type": "cell-based", "details": "Homo sapiens, HT-29; B-RAF V600E mutant HT29 colorectal cancer cells, 1 h treatment", "protocol": "as §1, §2"}, "[4]": {"tested_on": "ERK phosphorylation in Sk-Mel-28 cells", "assay": "cellular phospho-ERK TR-FRET assay", "type": "cell-based", "details": "Homo sapiens; B-RAF V600E mutant melanoma Sk-Mel-28 cells, 1 h treatment", "protocol": "as §1, §2"}, "aqueous solubility study": {"assay": "aqueous solubility study", "type": "physicochemical", "details": "sesqui-maleate salt"}, "C-Raf (Y340D/Y341D)": {"molecular_target": "T1, C-Raf (Y340D/Y341D) (Homo sapiens, UniProt P04049, Y340D/Y341D)", "T1 construct": "purchased Life Technologies PV3805", "T1 sequence (P04049 whole entry Y340D/Y341D)": "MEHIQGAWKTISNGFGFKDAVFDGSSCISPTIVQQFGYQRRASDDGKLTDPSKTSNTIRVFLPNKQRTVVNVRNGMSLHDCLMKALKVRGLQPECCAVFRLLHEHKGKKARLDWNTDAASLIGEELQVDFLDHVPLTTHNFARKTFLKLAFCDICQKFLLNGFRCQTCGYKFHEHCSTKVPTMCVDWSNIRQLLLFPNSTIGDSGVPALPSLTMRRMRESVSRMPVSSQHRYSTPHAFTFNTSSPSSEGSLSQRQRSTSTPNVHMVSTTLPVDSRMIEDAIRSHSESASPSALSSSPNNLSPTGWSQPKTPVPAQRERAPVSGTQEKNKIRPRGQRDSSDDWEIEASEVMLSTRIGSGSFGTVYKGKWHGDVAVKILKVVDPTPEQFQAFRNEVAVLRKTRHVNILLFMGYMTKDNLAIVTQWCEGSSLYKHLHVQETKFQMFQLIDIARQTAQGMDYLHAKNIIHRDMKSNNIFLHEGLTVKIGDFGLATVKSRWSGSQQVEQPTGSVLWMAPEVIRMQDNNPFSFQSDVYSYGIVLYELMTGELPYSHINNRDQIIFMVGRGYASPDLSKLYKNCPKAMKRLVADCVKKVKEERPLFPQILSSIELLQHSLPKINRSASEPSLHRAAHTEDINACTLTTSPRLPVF", "assay": "Raf kinase enzymatic assay (HTRF)", "type": "biochemical", "protocol": "(§3) Crystalline Form A* of Compound 1 Sesqui-Maleate was tested against recombinant B-Raf (V600E) (PV3849), C-Raf (Y340D/Y341D) (PV3805) and wild-type Braf (PV3848) from Life Technologies in kinase activity assays based on homogeneous time-resolved fluorescence (HTRF) methodology (Cisbio Bioassays). The assays were carried out in a reaction mixture containing RAF kinases, ATP at KM concentration, GST-tagged MEK1 (K97R) and Crystalline Form A* of Compound 1 Sesqui-Maleate or DMSO in buffer containing 25 mM Tris pH7.4, 10 mM MgCl2, 0.5 mM EGTA, 0.5 mM Na3VO4, 5 mM beta-glycerophosphate, 0.01% Triton X-100, 2.5 mM DTT and 0.1% BSA. The kinase was incubated with Crystalline Form A* of Compound 1 Sesqui-Maleate for 1 hr at room temperature (RT) and the reaction was initiated by the addition of ATP and GST-MEK1 (Full-length protein with K97R mutation, recombinant protein purified from bacterial expression system). After reaction at RT for 1 hr, stop/detection solution was added according to the manufacture's instruction (Cisbio Bioassays). The stop/detection solution contained Eu3+ cryptate-conjugated anti-phospho MEK1/2 (Ser217/221) rabbit polyclonal antibody and d2-conjugated anti-GST mouse monoclonal antibody in buffer containing 25 mM Tris pH7.4, 400 mM KF, 50 mM EDTA, 0.1% BSA and 0.01% Triton X-100. The TR-FRET signals (ratio of fluorescence emission at 665 nm over emission at 620 nm with excitation at 337 nm wavelength) were measured on a PHERAstar FS plate reader (BMG Labtech) after 1.5 hr incubation. Phosphorylation of MEK1 led to the binding of anti-phospho-MEK1/2 antibody to GST-MEK1 protein that place fluorescent donor (Eu3+ crypate) in close proximity to the accepter d2 on the anti-GST antibody, thus resulting in a high degree of fluorescence resonance energy transfer from the donor fluorophore (at 620 nm) to the acceptor fluorophore (at 665 nm). The IC50 for Crystalline Form A* of Compound 1 Sesqui-Maleate was derived from fitting the dose-response % inhibition data to the four-parameter logistic model by Graphpad Prism software."}, "wild-type Braf": {"molecular_target": "wild-type Braf (Homo sapiens, UniProt P15056)", "sequence (P15056 whole entry)": "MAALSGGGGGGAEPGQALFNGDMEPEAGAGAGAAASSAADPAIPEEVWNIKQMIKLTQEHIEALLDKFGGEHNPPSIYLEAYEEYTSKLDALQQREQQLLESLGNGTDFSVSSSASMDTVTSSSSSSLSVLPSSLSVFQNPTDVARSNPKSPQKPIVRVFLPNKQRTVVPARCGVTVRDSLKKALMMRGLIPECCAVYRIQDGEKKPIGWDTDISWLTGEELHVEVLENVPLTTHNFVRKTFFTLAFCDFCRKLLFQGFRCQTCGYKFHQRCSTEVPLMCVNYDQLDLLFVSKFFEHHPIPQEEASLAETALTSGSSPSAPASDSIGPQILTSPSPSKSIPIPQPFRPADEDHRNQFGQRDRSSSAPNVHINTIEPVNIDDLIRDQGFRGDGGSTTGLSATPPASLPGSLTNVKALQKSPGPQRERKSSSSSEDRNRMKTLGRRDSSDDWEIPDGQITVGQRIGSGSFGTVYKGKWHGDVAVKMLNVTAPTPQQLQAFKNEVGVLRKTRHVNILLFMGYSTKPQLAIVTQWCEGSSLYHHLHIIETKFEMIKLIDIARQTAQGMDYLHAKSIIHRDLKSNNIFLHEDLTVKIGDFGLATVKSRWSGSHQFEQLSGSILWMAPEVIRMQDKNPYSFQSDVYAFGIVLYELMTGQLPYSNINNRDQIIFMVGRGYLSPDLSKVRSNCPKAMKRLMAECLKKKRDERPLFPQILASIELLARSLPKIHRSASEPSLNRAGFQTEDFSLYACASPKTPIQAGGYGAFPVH", "assay": "Raf kinase enzymatic assay (HTRF)", "type": "biochemical", "protocol": "as §3"}, "[5]": {"assay": "nonclinical toxicity and safety pharmacology program", "protocol": "A comprehensive nonclinical toxicity study program, including 28-day GLP studies in rats and dogs and several investigational studies, was conducted for the evaluation of the preclinical safety of Compound 1 Sesqui-Maleate (Crystalline Form A*). These studies took account the available regulatory guidance for preclinical development of anticancer drugs."}, "[6]": {"assay": "Raf kinase enzymatic assay (HTRF)"}}, "note": "pIC50: −log10 of the molar value. Where a name gives a salt, the structure may show the parent alone.", "data": [{"smiles": "O=C1CCc2c(Oc3ccc4c(c3)[C@@H]3[C@H](O4)[C@H]3c3nc4ccc(C(F)(F)F)cc4[nH]3)ccnc2N1", "note": "[5-(((1R,1aS,6bR)-1-(6-(trifluoromethyl)-1H-benzo[d]imidazol-2-yl)-1a,6b-dihydro-1H-cyclopropa[b]benzofuran-5-yl)oxy)-3,4-dihydro-1,8-naphthyridin-2(1H)-one sesqui-maleate salt]", "values": [{"measurement": "pIC50", "setting": "[1]", "result": 7.49}, {"measurement": "pIC50", "setting": "[2]", "result": 7.28}, {"measurement": "pIC50", "setting": "[3]", "result": 6.99}, {"measurement": "pIC50", "setting": "[4]", "result": 7.11}, {"measurement": "solubility in water", "setting": "aqueous solubility study", "result": "slightly soluble in water"}, {"measurement": "aqueous solubility", "setting": "aqueous solubility study; water, LOQ at 0.001 mg/mL", "result": 20, "unit": "µg/mL"}, {"measurement": "enzyme inhibition", "setting": "C-Raf (Y340D/Y341D); C-RAF", "result": "potent and reversible inhibitor"}, {"measurement": "pIC50", "setting": "C-Raf (Y340D/Y341D); CRAF Y340, 341D, ATP at KM", "result": 8.46}, {"measurement": "pIC50", "setting": "wild-type Braf; WT-BRAF, ATP at KM", "result": 7.16}, {"measurement": "enzyme inhibition", "setting": "wild-type Braf; wild-type B-RAF", "result": "potent and reversible inhibitor"}, {"measurement": "teratogenic, mutagenic and reproductive toxicity", "setting": "[5]; additional toxicity testing", "result": "no teratogenic, mutagenic and reproductive toxicity"}, {"measurement": "toxicology and safety pharmacology profile", "setting": "[5]; incl. 28-day GLP studies in rats and dogs", "result": "favorable toxicology and safety pharmacology profile"}, {"measurement": "effect on autonomic nervous system activity or the central nervous system", "setting": "[5]; safety pharmacological test", "result": "no effect"}, {"measurement": "effect on respiration, blood pressure and circulatory function", "setting": "[5]; safety pharmacological test", "result": "no effect"}, {"measurement": "pIC50", "setting": "[6]; BRAF V600E (416-766), ATP at KM", "result": 7.59}, {"measurement": "enzyme inhibition", "setting": "[6]; V600E mutant B-RAF", "result": "potent and reversible inhibitor"}]}]}
